Results published in the METLIN SMRT retention time set (Domingo-Almenara et al. 2019).

Experiment: gradient 5% acetonitrile 3 min, to 50% in 2 min, to 85% in 15 min, held 3 min, 100 µL/min
Conditions: column: Zorbax Extend-C18 2.1 x 50 mm; eluents: water / acetonitrile, 0.1% formic acid
Outline: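 Mixtures of ~100 pure standards were chromatographed on a Zorbax Extend-C18 column (2.1 × 50 mm, 1.8 μm) at 100 μL/min using water and acetonitrile, each with 0.1% formic acid. Detection used a quadrupole time-of-flight mass spectrometer in positive and negative ionization mode, and data collection spanned 3 months. Retention time was obtained from adduct peaks picked computationally and each checked manually.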

RP-LC retention time [s]	SMILES
560	O=C(CCC1CCCN(c2cc(NC3CC3)ncn2)C1)NCc1cccnc1 (centres undefined)
869	COC(=O)C1=CN(c2cccc(F)c2)c2cc(F)ccc2S1(=O)=O
882	CC1(C(=O)NCc2ccc(F)cc2)CN(S(C)(=O)=O)CC(=O)N1CCCc1ccccc1 (centres undefined)
843	CC1CCN(C(=O)C2CCc3sc(C(=O)N4CCCC4)cc3C2)CC1 (centres undefined)
583	O=C(CN1C(=O)c2ccccc2Sc2ncccc21)N1CCC(N2CCCCC2)CC1
704	N#Cc1c(NC(=O)CSc2nnc3ccccn23)sc2c1CCC2
764	COc1ccc(-c2noc(-c3ccc(N4CCN(c5ccccn5)CC4)nc3)n2)cc1
816	O=C(CCC1CCCN(C(=O)Nc2ccccc2)C1)NCc1ccc(F)cc1F (centres undefined)
1180	c1ccc(CCc2nnc3sc(-c4ccc5ccccc5n4)nn23)cc1
807	O=C(CCc1c[nH]c2ccccc12)N1CCN(C(=O)c2cc(-c3ccncc3)n[nH]2)CC1
666	O=C(Cc1nc(-c2ccccn2)n[nH]1)Nc1ccc(Cl)cc1
809	CNc1oc(-c2ccco2)nc1S(=O)(=O)c1ccc(F)cc1
668	CCc1nncn1C1CCN(S(=O)(=O)c2ccc(OC)cc2)CC1
1230	CC1CCN(S(=O)(=O)c2ccc(C(=O)Nc3nc4c(s3)Cc3ccccc3-4)cc2)CC1
667	CCCNc1cc(N2CCCC(CCC(=O)Nc3ccc(OC)c(OC)c3)C2)ncn1 (centres undefined)
560	Cc1nnc(SCC(=O)N2CCOCC2)s1
892	O=C(C1CCN(c2nc3ccc(-c4cccc(F)c4)nc3s2)CC1)N1CCOCC1
686	COCCC(=O)N1CCN(c2nc(CN3CCOCC3)cs2)CC1
905	Cc1ccc(-c2cn3ccn(-c4ccc(Cl)cc4)c(=O)c3n2)cc1
1050	Cc1ccc(N2CC(c3nc(-c4ccc5c(c4)OCO5)no3)CC2=O)cc1Cl (centres undefined)
779	Cc1sc2ccn(C)c(=O)c2c1C(=O)NC(C)c1ccc(F)cc1 (centres undefined)
868	O=c1ccc(N2CCCN(S(=O)(=O)c3cccc(Cl)c3)CC2)nn1-c1ccccc1
665	CCC(=O)NC(C)c1nc(-c2ccccc2OC)no1 (centres undefined)

RP-LC retention time [s]	SMILES
566	CCCN1CCN(S(=O)(=O)c2cc(-c3[nH]ncc3C(=O)N(C)C)oc2C)CC1
646	CCN(CC)CCNC(=O)c1c(-c2ccccc2)c(-c2ccccc2)nn(C)c1=O
1060	Cc1nc(-c2cn(C)c3ncccc23)sc1C(=O)Nc1ccc(Cl)cc1
973	Cc1ccc(S(=O)(=O)N2C(=O)CCC2C(=O)Nc2ccc(C)c(C)c2)cc1 (centres undefined)
821	CCOc1ccc(-c2[nH]nc3nc(-c4cccc(OC)c4)cc(C(=O)O)c23)cc1
757	Cc1noc(C)c1S(=O)(=O)N1CC(n2cc(C(=O)NCC3CC3)nn2)C1
952	CCOC(=O)c1cc(C2CC2)nc2c1c(=O)n(CC(=O)NC1CCCC1)c(=O)n2C
1280	CCOC(=O)c1cnc2c(-c3ccc(Cl)cc3)c(CC)nn2c1N
966	Fc1ccc(OCc2nn3c(CSc4ccccc4)nnc3s2)cc1
1030	Cc1cc(NC(=O)Cn2cc3c(n2)CCCCC3)ccc1Br
1010	Cc1ccccc1CN1N=C(C(=O)N2CCCCC2)S(=O)(=O)c2ccccc21
631	COc1cccc(-c2nc(CS(=O)(=O)CC(=O)N3CCN(c4ccccn4)CC3)c(C)o2)c1
1110	CCOc1ccc(-c2nc(CN3C(=O)C(O)(c4ccccc4)c4ccccc43)c(C)o2)cc1 (centres undefined)
813	CCCCNC(=O)c1ccc2c(c1)N(C)C(=O)C1CCCCN21 (centres undefined)
545	COCCn1c(CCCC(=O)NCc2ccccn2)nc2cccnc21
624	CC1=C(c2ccc(C)cc2)S(=O)(=O)N=C1N1CCCN(C(=O)Cc2cccnc2)CC1
579	CN(C)CCNC(=O)Cn1c(=O)n(-c2ccccc2)c2ncccc21
648	CCC(C)n1nnc2cc(S(=O)(=O)N3CCC(C(=O)NCc4cccnc4)CC3)ccc21 (centres undefined)
554	Cc1cnc(C2CN(Cc3cccc(F)c3)C2)n1CC1CC1
826	O=C(NCc1ccco1)c1cccc(Nc2c(-c3ccc(Cl)cc3)nc3cnccn23)c1
817	CC(C)(C)C(=O)Nc1cnc(N2CCCCCC2)nc1
817	CCN(CC)S(=O)(=O)N1CCC(C(=O)NCCc2ccccc2)CC1
949	Cc1cccc2c(=O)n(C3CCN(S(=O)(=O)c4ccc(F)cc4)CC3)cnc12

RP-LC retention time [s]	SMILES
675	Cc1ccc(-c2ncccc2CNS(=O)(=O)c2cccs2)cc1
920	COc1ccc(NC(=O)c2cc3ccccc3c(=O)o2)c([N+](=O)[O-])c1
828	COc1ccccc1-c1cc(C(N)=O)c2cccc(C)c2n1
693	Cc1cc(NC(=O)C2CCN(c3cc(N4CCCC4)ncn3)CC2)ccc1F
794	CCOC(=O)c1c(C)[nH]c(C)c1S(=O)(=O)N1CCC(C(=O)NCCc2sccc2C)CC1
1100	O=C(NC1CCCC1)c1cccn1Cc1noc(-c2ccc(Cl)cc2)n1
663	COC(=O)c1c(C)[nH]c(C(=O)N2CCC(CC(=O)NC(C)C)CC2)c1C
653	COc1ccccc1NC(=O)Oc1cccc(OC(=O)c2ccccc2)c1
660	CCCCS(=O)(=O)Nc1ccc2c(c1)nc(-c1ccc(C(=O)NCCC)cc1)n2C
1000	O=c1c2cc(Cl)ccc2oc2cc(O)cc(O)c12
788	O=C(NCc1ccco1)C1(c2ccc(F)cc2)CC1
932	CSc1nnc(C)c(=O)n1COC(=O)c1cc(C(F)(F)F)cc(C(F)(F)F)c1
979	CCn1c(=O)sc2cc(S(=O)(=O)N3CCC(C(=O)Nc4ccc(C)c(F)c4)CC3)ccc21
917	COC(=O)c1cc2c(=O)n(-c3cccc(C(F)(F)F)c3)ccc2nc1C
808	CC(C)Cc1nc(CNC(=O)c2coc(C3CC3)n2)no1
954	O=C(c1csc(N2CCN(c3ccc(F)cc3)CC2)n1)N1CCOCC1
1090	CCn1c(=O)c(N2CCCC(C(=O)N3CCN(c4ccc(F)cc4)CC3)C2)nc2ccccc21 (centres undefined)
823	O=C(Cn1cnc2nc3c(cc2c1=O)CCCC3)Nc1cccc(C(F)(F)F)c1
795	Cc1ccc(NC(=O)N2CCC(n3cnc4ccc(C)cc4c3=O)CC2)c(C)c1
847	Cc1cc(NC(=O)C2CCN(C(=O)c3cnn(-c4ccccc4)n3)CC2)no1
572	Cc1ccc2c(Nc3ccc(CC(=O)O)cc3)c(C(=O)N3CCCC3)cnc2n1
702	CCC1CCCCN1C(=O)c1cnc2nc(C)ccc2c1Nc1ccc(C)c(C)c1 (centres undefined)
925	Cc1ccc(-c2noc(Cn3ccn(-c4c(C)cccc4C)c(=O)c3=O)n2)cc1

RP-LC retention time [s]	SMILES
1250	COc1ccc(N2CCN(S(=O)(=O)c3cc(-c4nc(C(C)C)cs4)cs3)CC2)cc1
974	CCCn1c(=O)sc2cc(S(=O)(=O)N3CCC(C(=O)Nc4ccc(F)cc4C)CC3)ccc21
801	Cc1ccc(Cl)cc1NC(=O)N1CCC(OC2CCN(S(C)(=O)=O)CC2)CC1
926	Cc1oc2cc(OCC#N)ccc2c(=O)c1-c1ccc(Cl)cc1
815	O=C(c1ccco1)N1CCc2cc(-c3ccno3)ccc21
647	COc1ccc(NC(=O)N2C[C@@H]3C[C@H]2C[C@@H]3NC(=O)c2ccccc2)c(OC)c1
925	COc1ccc(S(=O)(=O)N(C)CC2(C)CCOCC2)cc1Cl
764	CN(C)C(=O)c1cc2c(s1)CCC(C(=O)Nc1ccc3c(c1)OCCO3)C2 (centres undefined)
975	CN(C(=O)C1CCN(S(=O)(=O)c2cc(C(=O)N3CCCCCC3)cs2)CC1)C1CCCCC1
708	CC1(C)SC(C)(C)N(C=O)C1C(=O)O (centres undefined)
676	COCCNC(=O)C(=O)NCC1(c2ccc(F)cc2)CCOCC1
839	COc1ccc(Cl)cc1NC(=O)c1cnc2sccn2c1=O
591	O=C(NC1CC(=O)N(C2CC2)C1)C1CC=CCC1 (centres undefined)
1250	Cc1cccc(-c2nnc(-c3ccc(Cl)c(S(=O)(=O)N4CCCCC4)c3)o2)c1
1160	Cc1ccc(NC(=O)c2csc(-c3cn(C)c4ncccc34)n2)c(F)c1
851	Cc1ccc(C)c(NC(=O)Cn2c(C)cc(-c3nnc(C4CC4)o3)c2C)c1
1010	N#CCCN(CCC#N)c1ccc(/C=C2\N=C(c3cc([N+](=O)[O-])ccc3Cl)OC2=O)cc1
962	CCOC(=O)N1CCN(c2nc(F)c3c(c2F)S(=O)(=O)CCN3Cc2ccco2)CC1
856	COc1ccc(-c2cc3nn(CC(=O)N4CCc5ccccc54)c(=O)n3c(C)n2)cc1
622	CCC1CN2C=NC(N3CCN(C(=O)Nc4ccc(OC)c(F)c4)CC3)=CC2=N1 (centres undefined)
